Source: a melting point compilation (Tetko et al.; mined from patent text by program, amines drawn as free bases though some values may be those of a salt)

| melting point | SMILES |
| --- | --- |
| 284 to 285 °C | O=C(O)C1=Cc2cc(-c3ccc(OC(F)(F)F)cc3)ccc2S(=O)(=O)CC1 |
| 240 to 242 °C | CCOc1nc(Nc2ccc(F)c(F)c2)nc(NC2CCN(S(=O)(=O)c3ccc(F)cc3)CC2)n1 |
| 220 °C | O=C(N[C@H]1CC[C@H](CCN2CCN(c3nccc4c3OCC4)CC2)CC1)c1ccc(-c2ccccc2)cc1 |
| 117 to 118 °C | CC(F)(F)c1cccc(Oc2ccc(C3CCCN4CCS(=O)(=O)N=C34)cc2)c1 (centres undefined) |
| 248 to 249 °C | COC(=O)C(C)(C)c1ccc(C(=O)Nc2cn3cc(-c4cn[nH]c4)ccc3n2)cc1 |
| 257 to 258 °C | NS(=O)(=O)c1ccc(-n2nc(C(F)(F)F)c3c2-c2ccccc2CC3)cc1 |
| 214 °C | CN1CCC(=C2c3cc(CO)n(C)c3CCn3ccnc32)CC1 |
| 87 °C | CCCCN(C(=O)C(C)C)c1ccc(-c2ccccc2)o1 |
| 200 to 201 °C | Cn1ncc(/C=C/C(=O)Nc2ccc(Cc3nn(C)c(=O)o3)cc2)c1-c1ccc(F)cc1 |
| 108 to 110 °C | O=[N+]([O-])C(CN(Cc1ccccc1)Cc1ccccc1)=C1NCCCS1 |
| 176 to 178 °C | Nc1sc2c(c1C(=O)c1cccc(C(F)(F)F)c1)CCN(CCCc1ccccc1)C2 |
| 226 to 228 °C | Nc1cccc(-c2nc3sccn3c2-c2ccnc(N[C@@H]3CCCN(S(=O)(=O)c4ccc(Cl)cc4)C3)n2)c1 |
| 159 to 160 °C | CNc1cccc(-c2ccc3c(C(N)=O)nn(-c4ccc(S(N)(=O)=O)cc4)c3c2)c1 |
| 99.5 to 102 °C | COc1ccc(-c2nc3ccccc3o2)cc1 |
| 166 °C | COc1ccccc1CNc1ccc2cc(Nc3ncc(C(F)(F)F)o3)ccc2n1 |
| 157 to 158 °C | COC(=O)c1cccc(-c2cc(-c3ccc(Cl)cc3)on2)c1 |

| melting point | SMILES |
| --- | --- |
| 178 to 180 °C | COc1ccc(C2Sc3ccccc3N(CCN(C)C)C(=O)C2OC(=O)c2cccc([N+](=O)[O-])c2)cc1 (centres undefined) |
| 164 to 168 °C | CCc1cc(-c2ccc(-c3cc[nH]n3)cc2)ccc1OC |
| 55 to 57 °C | CCCC(N)(CO)CCCc1ccc(Sc2cccc(OCc3ccccc3)c2)cc1Cl (single isomer, unassigned; (+)) |
| 180 to 182 °C | CN(C)C(=O)c1cc(-c2nccs2)[nH]c1C(CC1CCOCC1)c1ccc(S(=O)(=O)C2CC2)cc1 (centres undefined) |
| 188 to 190 °C | O=C(O)C(CCc1ccc(Cl)cc1)(Cn1cncn1)c1ccccc1 (centres undefined) |
| 164 to 166 °C | O=C(O)CC1=CCCCC1n1nc(-c2c(-c3ccccc3)nn3ccccc23)ccc1=O (centres undefined) |
| 85 to 87 °C | Cc1oc(-c2ccccc2)nc1Cc1cccc(CC2COC(C)(C)OC2)c1 |
| 112 to 114 °C | COc1ccc(S(=O)(=O)n2ccc3ccnc(-c4cccs4)c32)cc1 |
| 200 to 205 °C | O=C(O)c1ccccc1CN1CCc2sccc2C1 |
| 200 to 202 °C | Cc1ccc2c(NCc3ccc(NC(=O)c4ccc(F)cc4)cc3)nc(N3CCN[C@@H](C)C3)nc2c1 |
| 208 °C | CCN(CC)c1ccc(-c2cc(-c3ccc(C(=O)O)cc3)ccc2OCCCO)cc1C |
| 95 to 96 °C | O=C(OCc1ccccc1)C1CSC2C(N=Cc3ccc([N+](=O)[O-])cc3)C(=O)N12 (centres undefined) |
| 95 to 96 °C | Cc1ccccc1CCNC(=O)c1ccc(Cl)cc1 |
| 128 to 130 °C | CNC(=O)[C@@H](C[C@H](O)[C@H](CC1CCCCC1)NC(=O)[C@H](Cc1cscn1)NC(=O)[C@@H](CC(=O)N1CCOCC1)Cc1ccc(OC)cc1)C(C)C |
| 105 to 110 °C | Cc1cc(NC2CN(C(=O)OCc3ccccc3)CC2O)c2cc(C)c(-c3ccc(Cl)cc3Cl)n2n1 (centres undefined) |

Second part, the compound before the results:

| SMILES | melting point |
| --- | --- |
| CNC(=O)/C(=N/OC)c1ccccc1CCl | 72 to 74 °C |
| CCc1ncnc2cc(OC)c(OCC3CO3)cc12 (centres undefined) | 120 to 122 °C |
| COC(=O)c1cccc(S(=O)(=O)Cl)c1C | 46.5 to 50 °C |
| COc1ccc2c(c1)NC(=O)C(N=[N+]=[N-])CC2 (centres undefined) | 136 to 138 °C |
| CCCCC(=O)N(CCCCn1ccnc1)C1=Nc2cccc3cccc1c23 | 110 to 112 °C |
| Nc1c(-c2cc(Cl)ccc2O)c2c(C(F)(F)F)cc(C(F)(F)F)cc2[nH]c1=O | 230 to 233 °C |
| Cc1cc(CON2C(=O)c3ccccc3C2=O)on1 | 129 to 131 °C |
| CC(=O)OC1CSC(Oc2ccc(-c3ccc(CO)cc3)nc2)C(OC(C)=O)C1OC(C)=O (centres undefined) | 157 °C |
| CCOCc1cc2cc(Br)ccc2oc1=Nc1ccc(F)cc1 | 153 to 154 °C |
| COc1cc2c(cc1OC)-c1cc(OC)c(OC)c3c1C(C2)CN(C)C3 (centres undefined) | 170 to 177 °C |
| CS(=O)(=O)N(CCc1ccccc1)Cc1cccnc1 | 94 to 95 °C |
| CN(C)C(=O)c1ccc(N)cc1S(=O)(=O)NC(C)(C)C | 205 to 208 °C |
| CC(=O)c1c(-c2ccc(S(C)=O)cc2)[nH]c(-c2ccncc2)c1C (centres undefined) | 249 to 250 °C |
| CCCC(=O)c1c[nH]c2c(C(=O)OC)cccc2c1=O | 151 to 153 °C |
| CCOC(=O)c1ccc(/C=C/c2c(C)cc3c(c2OC)C(C)(C)CCC3(C)C)cc1 | 123 °C |
| O=C(O)/C=C/c1ccc(C(=O)NCC2CCCO2)cc1 (centres undefined) | 215 °C |
| OC(COCc1ccccc1)C(O)COCc1ccccc1 (single isomer, unassigned; (+)) | 44 to 45 °C |
| CCOC(=O)C1=Cc2cc3ccccc3n2CC1 | 77 to 79 °C |
| COc1cc([N+](=O)[O-])c(Br)cc1OCc1ccccc1 | 134 to 135 °C |
| CN1CCC(C(=O)NO)(S(=O)(=O)c2ccc(Oc3ccc(Cl)cc3)cc2)CC1 | 52 °C |
| Cc1nc(NC(=O)OCC[Si](C)(C)C)cs1 | 101 to 103 °C |
| CCc1cnc(-c2ccc(OC)cc2)c(-c2ccc(OC)cc2)n1 | 76.5 to 78 °C |
| CC(C)(NC(=O)CCn1cnc(C=O)c1)c1ccc(Cl)c(Cl)c1 | 161 to 163 °C |

| SMILES | melting point |
| --- | --- |
| NCC1Cc2cc(C(F)(F)F)cc(-c3cccc(Cl)c3Cl)c2O1 (centres undefined) | 152 to 155 °C |
| CC1(C)[C@@H](CN2CC[C@@H](O)C2)CC[C@@]1(C)NCC(=O)N1C[C@@H](F)C[C@H]1C#N | 130 to 135 °C |
| Cc1[nH]cnc1CSCCNC(=N)NCCCc1c[nH]cn1 | 128 to 131 °C |
| O=C(c1ccccc1)C(O)CCl (centres undefined) | 42 to 45 °C |
| C/C(NCC(C)(C)C)=C(\C#N)C(N)=S | 143 to 144 °C |
| Cn1nc(-c2cccs2)n(C)c1=S | 128 to 129 °C |
| COC(=O)c1ccc(C(=O)NS(=O)(=O)c2ccc(CCNC(=O)Cc3ccc(OC)c(OC)c3)cc2)cn1 | 164 to 169 °C |
| NC1(C(=O)O)CC(OC(=O)Nc2ccccc2F)C2C(C(=O)O)C21 (centres undefined) | 232 to 233 °C |
| O=C(O)CNC(=O)c1nc2ccccc2cc1O | 191 °C |
| Cc1[nH]c(=S)[nH]c(=O)c1Cc1cccnc1 | 328 to 331 °C |
| COc1cc(C(=O)N(C(C)C)C(C)C)ccc1OCCCCOc1ccc(C(N)=NO)cc1 | 63 to 65 °C |
| Cc1nc2c(N)nc3c(c2n1CC(C)(C)OCCS(C)(=O)=O)CCCC3 | 226 to 229 °C |
| COc1cc(NC(=O)Nc2c(-c3ccccc3Cl)c3cc(C)c(C)cc3n(C)c2=O)cc(OC)c1OC(C)=O | 233 to 234 °C |
| CC1(C)SC(c2cccnc2)NC1C(=O)O (centres undefined) | 164 to 165 °C |
| O=C(COCc1ccc(Cl)cc1Cl)c1ccccc1 | 83 to 85 °C |
| Cc1c(C(=O)OC(C)C)ncc2c1c1c(OCc3ccccc3)cccc1n2CC(=O)N(C)CCc1ccccc1 | 69 to 74 °C |
| CCCc1c2nc(C(=O)OCC)cc(NC)c2cc2c(=O)cc(C(=O)OCC)oc12 | 235 to 237 °C |
| CC(C)c1cc(C(C)(C)C)cc(Br)c1OCc1ccccc1 | 47 to 49 °C |
| O=S1(=O)c2sccc2C=C(CO)N1CCN1CCOCC1 | 119 to 121 °C |
| COc1ccccc1C1(C(C)(C)O)CCN(C)CC1 | 110 to 111 °C |
| N#Cc1cnn2c(-c3cccc(C(F)(F)F)c3)ccnc12 | 141 to 142 °C |
| O=[N+]([O-])c1ccc(CSc2cc(Cl)nc3c2ncn3C2OC(CO)C(O)C2O)cc1 (centres undefined) | 162 to 165 °C |
| FC(F)(F)Sc1cc[nH]c1-c1ccc(Cl)cc1 | 59 to 64 °C |

| SMILES | melting point |
| --- | --- |
| CCOC(=O)C1=C(C)Nc2nccn2C1C (centres undefined) | 185 to 186 °C |
| CCNC(=O)N(C)C(=O)Nc1ccccc1 | 80.5 to 81.5 °C |
| CC(C(=O)O)c1ccc(-n2cc(Cl)cn2)c(Cl)c1 (centres undefined) | 102 to 103 °C |
| CC(C)n1nc(-c2sc(N)nc2-c2cccc(F)c2)ccc1=O | 237 to 238 °C |
| CCCC1(C)C(=O)N(COC(=O)c2c(Cl)cccc2Cl)S(=O)(=O)N1C (centres undefined) | 93 to 95 °C |
| CC(=O)Nc1ccc(Oc2c([N+](=O)[O-])cc(C(=O)O)cc2S(N)(=O)=O)cc1 | 305 °C |
| CCCN(CC)c1cc(C)nc(Oc2c(C)cc(C)cc2C)c1C | 167 to 169 °C |
| COc1ccc(OC)c(COc2ccc(S(=O)(=O)c3ccc(C)nc3Nc3c(C)cc(C)cc3C)cc2)c1 | 128 to 130 °C |
| Cc1cc(Cl)ccc1NC(=O)NCc1ccc2c(c1)CN(C1CCC(=O)NC1=O)C2=O (centres undefined) | 256 to 258 °C |
| O=C1c2ccccc2C(=O)c2sc(-c3ccc(Br)o3)nc21 | > 260 °C |
| CC1(C)CC(=O)C2=C(C1)NC1=C(C(=O)CC(C)(C)C1)C2c1ccc2ccccc2c1 | > 300 °C |
| CCCCc1ncc(C=C(Cc2cccs2)C(=O)O)n1Cc1cccc(C(=O)O)c1 | 243 to 244 °C |
| CC1Nc2ccc(-c3ccc(C#N)[nH]3)cc2C(C)(C)O1 (centres undefined) | 201 to 202 °C |
| NC1CCc2[nH]c3ccccc3c2C1 (centres undefined) | 160 to 166 °C |
| Cc1cc(C)cc(CNc2c(NC(C)(C)C)c(=O)c2=O)c1 | 246 to 248 °C |
| NC(CCCCNC(=O)NC(Cc1c[nH]c2ccccc12)C(=O)O)C(=O)O (centres undefined) | 133 °C |
| COc1ccc2[nH]c(-c3ccc(OC)c4nc(C(F)(F)F)ccc34)nc2c1 | 131 to 133 °C |
| CC(C)c1ccc2c(c1)CCC1C(C)(C(=O)O)CCCC21C (centres undefined) | 168 to 170 °C |
| O=C1CCC(C2CCCCC2)C(=O)C1 (centres undefined) | 137 to 140 °C |
| CCCCCCCCCCCCCCCCCC(=O)NCNC(=O)CCSc1ccc(O)cc1 | 172 °C |
| Nc1nc(OCCC2CCCCC2)nc2c1ncn2C1OC(CO)C(O)C1O (centres undefined) | 105 to 112 °C |
| COC(OC)c1cc(C)nc(N)n1 | 69 to 71 °C |
